In patent publication US12139492B2 (Endotarget Inc., priority 2021, dated 2024) one finds IC50, DC50 and Dmax data, which are given here for seven compounds.

One assay concerns JeKo-1 cells. The assay is described as follows: Antiproliferative effect, MTS cell viability assay, JeKo-1 cells. The note with it: Homo sapiens; JeKo-1 mantle cell lymphoma cells; read-out: IC50 (anti-proliferation) JeKO-1 cells. It counts as cell-based. The gist of the method:
(§1)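 Tested at six concentrations (0 to 10 μM in tenfold steps), 72 h; viability by MTS, A490.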
On the technique in general: Tetrazolium assays rely on reduction of a dye to a coloured formazan, in cell work by metabolically active cells.

For the next assay, the target named is BTK (Homo sapiens, UniProt Q06187). The assay is described as follows: Degradation of BTK protein in Namalwa cells (Western blot; DC50, Dmax). The note with it: for DC50: read-out: DC50 (BTK degradation), concentration giving 50% reduction of BTK expression level, cell line not given; for Dmax: read-out: Dmax (BTK degradation). (In general: In western blotting, separated proteins are transferred to a membrane and probed.)
Chain of BTK (Q06187 whole entry): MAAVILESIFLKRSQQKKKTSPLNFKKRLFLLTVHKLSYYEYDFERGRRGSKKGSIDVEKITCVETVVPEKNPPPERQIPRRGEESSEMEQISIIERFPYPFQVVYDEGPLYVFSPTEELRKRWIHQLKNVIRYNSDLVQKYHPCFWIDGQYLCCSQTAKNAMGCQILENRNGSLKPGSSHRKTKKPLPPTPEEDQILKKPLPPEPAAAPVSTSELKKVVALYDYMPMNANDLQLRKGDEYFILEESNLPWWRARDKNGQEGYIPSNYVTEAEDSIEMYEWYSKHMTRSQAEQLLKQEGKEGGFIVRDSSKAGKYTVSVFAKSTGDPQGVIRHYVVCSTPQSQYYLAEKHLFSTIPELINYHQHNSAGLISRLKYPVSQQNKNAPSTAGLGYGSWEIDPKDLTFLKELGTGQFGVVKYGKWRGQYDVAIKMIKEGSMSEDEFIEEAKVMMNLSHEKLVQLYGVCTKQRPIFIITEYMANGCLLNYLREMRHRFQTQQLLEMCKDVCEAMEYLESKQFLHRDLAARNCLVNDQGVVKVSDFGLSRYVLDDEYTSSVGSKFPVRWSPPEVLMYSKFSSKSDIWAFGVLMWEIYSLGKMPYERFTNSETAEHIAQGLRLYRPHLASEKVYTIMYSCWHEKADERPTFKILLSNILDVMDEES

For the next assay, the system named is Mino cells. The assay is described as follows: Antiproliferative effect, MTS cell viability assay, Mino cells. Format: cell-based. The note with it: Homo sapiens, MINO, Mino mantle cell lymphoma cells; read-out: IC50 (anti-proliferation) Mino cells. The gist of the method:
as §1

A value given as a limit tells only on which side of the number the result lay.

For orientation: DC50 means the concentration at which degradation of the target reaches its halfway point. What is called Dmax is the largest share of the target that was removed. `Nc1ncnc2c1c(-c1ccc(Oc3ccccc3)cc1)nn2C1CCN(CC2CCN(CC3CCN(c4ccc(NC5CCC(=O)NC5=O)cc4)CC3)CC2)CC1` (stereo not shown) [Compound 557, 3-((4-(4-((4-((4-(4-amino-3-(4-phenoxyphenyl)-1H-pyrazolo[3,4-d]pyrimidin-1-yl)piperidin-1-yl)methyl)piperidin-1-yl)methyl)piperidin-1-yl)phenyl)amino)piperidine-2,6-dione]: in the assay with JeKo-1 cells, the IC50 was under 1000 nM. Also, at BTK, the DC50 was under 10 nM and the Dmax was over 90%. In addition, in the assay on Mino cells, the IC50 was under 1000 nM.
As for `Nc1ncnc2c1c(-c1ccc(Oc3ccccc3)cc1)nn2C1CCN(CCN2CCC(CN3CCN(c4ccc(NC5CCC(=O)NC5=O)cc4)CC3)CC2)CC1` (stereo not shown) [Compound 558, 3-((4-(4-((1-(2-(4-(4-amino-3-(4-phenoxyphenyl)-1H-pyrazolo[3,4-d]pyrimidin-1-yl)piperidin-1-yl)ethyl)piperidin-4-yl)methyl)piperazin-1-yl)phenyl)amino)piperidine-2,6-dione], the IC50 with JeKo-1 cells and in the assay on Mino cells was under 1000 nM in each case. Also, on BTK, the DC50 was under 10 nM. In addition, the Dmax at BTK is over 90%.
As for `Nc1ncnc2c1c(-c1ccc(Oc3ccccc3)cc1)nn2C1CCN(CCN2CCC(CC3CCN(c4ccc(NC5CCC(=O)NC5=O)cc4)CC3)CC2)CC1` (stereo not shown) [Compound 559, 3-((4-(4-((1-(2-(4-(4-amino-3-(4-phenoxyphenyl)-1H-pyrazolo[3,4-d]pyrimidin-1-yl)piperidin-1-yl)ethyl)piperidin-4-yl)methyl)piperidin-1-yl)phenyl)amino)piperidine-2,6-dione], the IC50 with JeKo-1 cells is under 1000 nM. In addition, at BTK, the DC50 was under 10 nM and the Dmax was over 90%. In addition, the IC50 in the assay on Mino cells is under 1000 nM.
Regarding `Nc1ncnc2c1c(-c1ccc(Oc3ccccc3)cc1)nn2C1CCN(CCCN2CCC(CN3CCN(c4ccc(NC5CCC(=O)NC5=O)cc4)CC3)CC2)CC1` (stereo not shown) [Compound 560, 3-((4-(4-((1-(3-(4-(4-amino-3-(4-phenoxyphenyl)-1H-pyrazolo[3,4-d]pyrimidin-1-yl)piperidin-1-yl)propyl)piperidin-4-yl)methyl)piperazin-1-yl)phenyl)amino)piperidine-2,6-dione], the IC50 in the assay on JeKo-1 cells was under 1000 nM. Moreover, on BTK, the DC50 is under 10 nM and the Dmax was over 90%. Besides, the IC50 with Mino cells was under 1000 nM.
For the compound `Nc1ncnc2c1c(-c1ccc(Oc3ccccc3)cc1)nn2C1CCN(CCCN2CCC(CC3CCN(c4ccc(NC5CCC(=O)NC5=O)cc4)CC3)CC2)CC1` (stereo not shown) [Compound 561, 3-((4-(4-((1-(3-(4-(4-amino-3-(4-phenoxyphenyl)-1H-pyrazolo[3,4-d]pyrimidin-1-yl)piperidin-1-yl)propyl)piperidin-4-yl)methyl)piperidin-1-yl)phenyl)amino)piperidine-2,6-dione], the IC50 with JeKo-1 cells and in the assay with Mino cells was under 1000 nM throughout. Also, the DC50 on BTK was 10 to 50 nM. In addition, the Dmax at BTK was over 90%.
As for `Nc1ncnc2c1c(-c1ccc(Oc3ccccc3)cc1)nn2C1CCN(CC2CCN(CC3CCN(c4ccc(NC5CCC(=O)NC5=O)cc4)CC3)C2)CC1` (stereo not shown) [Compound 562, 3-((4-(4-((3-((4-(4-amino-3-(4-phenoxyphenyl)-1H-pyrazolo[3,4-d]pyrimidin-1-yl)piperidin-1-yl)methyl)pyrrolidin-1-yl)methyl)piperidin-1-yl)phenyl)amino)piperidine-2,6-dione], the IC50 in the assay with JeKo-1 cells and in the assay on Mino cells was 1000 to 10000 nM throughout. In addition, the DC50 at BTK fell in the range of 10 to 50 nM. Further, the Dmax at BTK is over 90%.
As for `Nc1ncnc2c1c(-c1ccc(Oc3ccccc3)cc1)nn2C1CCN(CCN2CCC(CN3CCN(c4ccc(NC5CCC(=O)NC5=O)cc4)CC3)C2)CC1` (stereo not shown) [Compound 563, 3-((4-(4-((1-(2-(4-(4-amino-3-(4-phenoxyphenyl)-1H-pyrazolo[3,4-d]pyrimidin-1-yl)piperidin-1-yl)ethyl)pyrrolidin-3-yl)methyl)piperazin-1-yl)phenyl)amino)piperidine-2,6-dione], in the assay on JeKo-1 cells, the IC50 was in the range of 1000 to 10000 nM. Besides, at BTK, the DC50 was in the range of 10 to 50 nM and the Dmax is over 90%. Besides, the IC50 in the assay with Mino cells lay in the range of 1000 to 10000 nM.
